Results from patent EP0698614A1, “Endothelin-antagonizing peptide” (KYOWA HAKKO KOGYO CO., LTD., priority 1994, dated 1996).
Read-outs that look alike come from different tables or passages of the source.

Legend:
endothelin receptor [1] = target: T1, endothelin receptor (Bos taurus, UniProt P21450); experiment: Endothelin receptor binding inhibition (125I-endothelin-1), bovine lung membrane fraction with RES-701-1 added (Test Example 2); details: read-out: IC₅₀
T1 construct: from tissue
T1 sequence (P21450 21-427): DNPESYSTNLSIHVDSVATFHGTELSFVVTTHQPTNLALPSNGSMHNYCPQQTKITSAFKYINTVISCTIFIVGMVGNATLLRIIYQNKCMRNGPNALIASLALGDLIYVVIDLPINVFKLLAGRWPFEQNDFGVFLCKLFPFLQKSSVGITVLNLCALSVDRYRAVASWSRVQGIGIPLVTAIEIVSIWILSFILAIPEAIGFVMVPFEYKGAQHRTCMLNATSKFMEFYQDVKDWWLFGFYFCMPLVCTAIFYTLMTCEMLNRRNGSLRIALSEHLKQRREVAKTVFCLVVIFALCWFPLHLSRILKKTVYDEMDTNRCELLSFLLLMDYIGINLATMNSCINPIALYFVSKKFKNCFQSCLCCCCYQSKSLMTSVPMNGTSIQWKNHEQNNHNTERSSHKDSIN
Description: (§1) The resulting solid substance was prepared as a suspension containing 2 mg/ml of protein, and the suspension was used as a membrane fraction liquid. […]

endothelin receptor [2] = target: T2, endothelin receptor (Bos taurus, UniProt P28088); experiment: Endothelin receptor binding inhibition (125I-endothelin-1), bovine cerebellum membrane fraction (Test Example 1); details: read-out: IC₅₀
T2 construct: the suspension was used as a membrane fraction liquid; from tissue; host or cells: bovine cerebellum membrane fraction
T2 sequence (P28088 27-441): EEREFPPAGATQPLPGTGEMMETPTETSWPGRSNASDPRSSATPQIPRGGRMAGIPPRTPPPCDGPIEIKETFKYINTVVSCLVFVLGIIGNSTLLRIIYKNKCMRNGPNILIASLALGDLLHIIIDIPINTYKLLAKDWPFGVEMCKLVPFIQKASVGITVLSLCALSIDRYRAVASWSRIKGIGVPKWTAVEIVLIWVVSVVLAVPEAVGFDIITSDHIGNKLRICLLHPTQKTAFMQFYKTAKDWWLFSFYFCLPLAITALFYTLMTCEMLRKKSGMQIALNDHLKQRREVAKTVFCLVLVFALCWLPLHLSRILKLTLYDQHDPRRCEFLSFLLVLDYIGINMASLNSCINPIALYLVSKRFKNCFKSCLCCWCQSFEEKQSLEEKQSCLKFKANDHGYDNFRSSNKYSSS
Description: as §1

IC50 (endothelin receptor [1])	IC50 (endothelin receptor [2])	SMILES	IC50 (endothelin receptor [1]; Concentration causing 50 % inhibition of endothelin-1 binding, bovine lung tissue membrane fraction, RES-701-1 added at […])	IC50 (endothelin receptor [2]; Concentration causing 50 % inhibition of endothelin-1 binding, bovine cerebellum tissue membrane fraction, 25°C for 2 hours)
–	–	COC(=O)[C@H](Cc1c[nH]c2ccccc12)NC(=O)[C@H](Cc1ccc(O)cc1)NC(=O)[C@H](Cc1ccc(O)cc1)NC(=O)[C@H](CC(N)=O)NC(=O)[C@H](Cc1ccccc1)NC(=O)[C@H](Cc1ccccc1)NC(=O)[C@H](Cc1c[nH]c2ccccc12)NC(=O)[C@@H]1CC(=O)NCC(=O)N[C@@H](CC(N)=O)C(=O)N[C@@H](Cc2c[nH]c3ccccc23)C(=O)N[C@@H](Cc2c[nH]cn2)C(=O)NCC(=O)N[C@@H]([C@@H](C)O)C(=O)N[C@@H](C)C(=O)N2CCC[C@H]2C(=O)N1 [(I-1)]	58 nM	[…]
> 490 nM	49 nM	C[C@@H]1NC(=O)[C@H]([C@@H](C)O)NC(=O)CNC(=O)[C@H](Cc2c[nH]cn2)NC(=O)[C@H](Cc2c[nH]c3ccccc23)NC(=O)[C@H](CC(N)=O)NC(=O)CNC(=O)C[C@@H](C(=O)N[C@@H](Cc2c[nH]c3ccccc23)C(=O)N[C@@H](Cc2ccccc2)C(=O)N[C@@H](Cc2ccccc2)C(=O)N[C@@H](CC(N)=O)C(=O)N[C@@H](Cc2ccc(O)cc2)C(=O)N[C@@H](Cc2ccc(O)cc2)C(=O)N[C@@H](Cc2c[nH]c3ccccc23)C(N)=O)NC(=O)[C@@H]2CCCN2C1=O [(I-3)]	–	–
